The record followed here is article PMC6100044 (Molecules : A Journal of Synthetic Chemistry and Natural …, 2018).

In assay [1] the test system is P. falciparum CQ-sensitive D10. Briefly: In vitro antimalarial assay (pLDH), Pf D10 strain. In kind it is cell-based, Plasmodium falciparum. Particulars: for Ratio IC50 cpd/IC50 DHA: D10 strain; for IC50: read-out: D10 (CQ-S) Mean ± S.D. IC50; for SI IC50WEHI-164/IC50 cpd: selectivity index versus D10 strain. How it is done: (§1) Compounds were dissolved in either water or DMSO and then diluted with medium to achieve the required concentrations (final DMSO concentration <1%, which is non-toxic to the parasite). […] Parasite growth was determined spectrophotometrically (OD650) by measuring the activity of the parasite lactate dehydrogenase (pLDH) according to a modification of the method of Makler in control and drug-treated cultures.
(§2) As a blank, uninfected RBCs were used for the antimalarial assays or media without cells for the cytotoxicity assays. The percent viability was plotted as a function of drug concentrations, and the curve fitting was obtained by nonlinear regression analysis using a four parameter logistic method (software Gen5 1.10 provided with the Synergy4 plate reader [Biotek]).

Assay [2] concerns P. falciparum CQ-resistant W-2. Briefly: In vitro antimalarial assay (pLDH), Pf W-2 strain. In kind it is cell-based, Plasmodium falciparum. Conditions: for IC50: 72 h, read-out: W-2 (CQ-R) Mean ± S.D. IC50; for Ratio IC50 cpd/IC50 DHA: W-2 strain; for SI IC50WEHI-164/IC50 cpd: selectivity index versus W-2 strain. How it is done:
as §1, §2

Assay [3] concerns mouse fibrosarcoma cell line WEHI-164. The assay can be described thus: Cytotoxicity, MTT assay, WEHI-164. Conditions: read-out: WEHI-164 Mean ± S.D. IC50. In kind it is cell-based.
Assay [4] has as its system fresh human dermal fibroblasts HDF. The assay can be described thus: Cytotoxicity, MTT assay, HDF. Particulars: Fibroblast, MTT assay conducted for 72 h, read-out: Mean (±S.D.) IC50 HDF. Format: cell-based. How it is done:
(§3) Selected compounds were carried forward for screening against the immortalized myelogenous leukemia, K562, human microvascular endothelial cells (HMEC-1) and fresh human fibroblasts HDF (Table 2) using the MTT assay, as above.
(§4) A long term microvascular endothelial cell line (HMEC-1) immortalized by SV 40 large T antigen was kindly provided by Dr. Francisco J. Candal, Center for Disease Control, Atlanta, GA, USA. […] Fibroblasts from skin biopsies were maintained in DMEM (EuroClone, Pero, Italy) supplemented with 10% fetal calf serum (HyClone, Logan, UT, USA), 2 mM glutamine, 100 U/mL of penicillin and 100 µg/mL of streptomycin.
(§5) Cells were then treated with serial dilutions of test compounds and cell proliferation evaluated using the MTT assay as previously described. […] All the tests were performed in triplicate at least three times.
as §2
On the technique in general: Tetrazolium assays rely on reduction of a dye to a coloured formazan, in cell work by metabolically active cells.

Assay [5] deals with different strains of Plasmodium falciparum (Pf). The assay can be described thus: In vitro antimalarial assay (pLDH), summary over different Pf strains. Particulars: for IC50: Plasmodium falciparum, range over D10 and W-2 strains, read-out: IC50 against different strains of Plasmodium falciparum; for selectivity index (SI) with respect to WEHI-164: WEHI-164 IC50 / antimalarial IC50, over the strains. Format: cell-based. How it is done: as §1, §2

The test system of assay [6] is myelogenous leukemia cell line K562. The assay can be described thus: Cytotoxicity, MTT assay, K562. In kind it is cell-based, human. Conditions: for IC50: Homo sapiens, K562, MTT assay conducted for 72 h, read-out: Mean (±S.D.) IC50 K562. How it is done:
as §3, §4, §5, §2

Where [7] appears, read: Plasmodium falciparum, D10, 72 h, CQ-sensitive strain, 72 h, pLDH readout.
Where [8] appears, read: Plasmodium falciparum, CQ-resistant strain, pLDH readout.
The mark [9] stands for this setting: Mus musculus, WEHI-164, 72 h, MTT, 72 h.
Where [10] appears, read: CQ-sensitive strain, 72 h, pLDH readout.
[11] abbreviates: CQ-resistant strain, pLDH readout.

Where two headings read alike, the source gives them in different places.

As for `CC1CCC2C(C)C(N3CCNCC3)OC3OC4(C)CCC1C32OO4` (stereo not drawn) [Compound 10, 10α-(1-Piperazino)-10-deoxo-10-dihydroartemisinin], the “Ratio IC50 cpd/IC50 DHA” value came to 0.41 in assay [1] and 0.73 in assay [2]. Further, the IC50 (commonly the concentration needed to halve the response being measured) in assay [1] (setting [7]) amounted to 1.4 ± 0.5 nM; in assay [2] (setting [8]) it was 1.1 ± 0.4 nM; in assay [3] (setting [9]), 150 ± 10 nM. For the same compound, the “SI IC50WEHI-164/IC50 cpd” value in assay [1] turned out to be 107; in assay [2], 136.

For the compound `CC1CCC2C(C)C(N3CCN(C4OC(C)C(O)C(O)C4O)CC3)OC3OC4(C)CCC1C32OO4` (centres unmarked) [Compound 23], the IC50 was 314000 ± 85600 nM in assay [4]; 0.74 ± 0.34 nM in assay [1] (setting [10]); below 1 nM in assay [1] (setting [7]); 0.74 ± 0.3 nM in assay [2] (setting [11]); below 1 nM in assay [2] (setting [8]); 0.58 to 0.87 nM in assay [5]. Further, the half-inhibitory concentration (IC50) worked out at 1950 ± 480 nM in assay [6] and 650 ± 60 nM in assay [3] (setting [9]). Moreover, the “Ratio IC50 cpd/IC50 DHA” value in assay [1] was 0.22; in assay [2], 0.49. The “SI IC50WEHI-164/IC50 cpd” value in assay [1] and in assay [2] was 878 throughout. In addition, the “selectivity index (SI) with respect to WEHI-164” value (“selectivity index (SI)” for short) in assay [5] is on record as above 195.

As for `CC1CCC2C(C)C(N3CCN(C4OC(CO)C(O)C(O)C4O)CC3)OC3OC4(C)CCC1C32OO4` (centres unmarked) [Compound 20], the half-inhibitory concentration (IC50) in assay [1] (setting [10]) was found to be 5.7 ± 2.9 nM; in assay [2] (setting [11]), 4.4 ± 2.3 nM; in assay [3] (MTT, 72 h), 3400 nM. The “Ratio IC50 cpd/IC50 DHA” value in assay [1] is listed as 1.7; in assay [2], 2.9. The entries for the “SI IC50WEHI-164/IC50 cpd” value in assay [1] and in assay [2] were 596 and 772, respectively.

On to `CC1CCC2C(C)C(N3CCN(C4OC(CO)C(O)C(O)C4O)CC3)OC3OC4(C)CCC1C32OO4` (centres unmarked) [Compound 19], for which the IC50 is 0.87 ± 0.25 nM in assay [1] (setting [10]); 0.71 ± 0.2 nM in assay [2] (setting [11]); 0.58 to 0.87 nM in assay [5]; 170 ± 30 nM in assay [3] (MTT, 72 h). The “Ratio IC50 cpd/IC50 DHA” value in assay [1] worked out at 0.26; in assay [2], 0.5. The figures for the “SI IC50WEHI-164/IC50 cpd” value in assay [1] and in assay [2] were 195 and 239, respectively. For the same compound, the “selectivity index (SI)” value in assay [5] is above 195.

On to `CCN(CC)CCCC(C)Nc1ccnc2cc(Cl)ccc12` (centres unmarked) [Chloroquine, chloroquine, reference compound], for which the IC50 in assay [1] (Plasmodium falciparum, D10, 72 h) is 23.4 ± 10.1 nM; in assay [2] (Plasmodium falciparum), 264 ± 143 nM; in assay [3] (Mus musculus, WEHI-164, 72 h) it was above 10000 nM.

As to `CC1CCC2C(C)C(N3CCN(C4OC(CO)C(O)C4O)CC3)OC3OC4(C)CCC1C32OO4` (centres unmarked) [Compound 26], the IC50 is 1.3 ± 0.8 nM in assay [1] (setting [10]); 0.82 ± 0.25 nM in assay [2] (setting [11]); 210 ± 10 nM in assay [3] (MTT, 72 h). The “Ratio IC50 cpd/IC50 DHA” value was 0.38 in assay [1] and 0.55 in assay [2]. Besides, the “SI IC50WEHI-164/IC50 cpd” value is reported as 161 in assay [1] and 256 in assay [2].

`CC1CCC2C(C)C(N3CCN(C4OC(CO)C(O)C4O)CC3)OC3OC4(C)CCC1C32OO4` (centres unmarked) [Compound 25]: the 50% inhibitory concentration (IC50) is 0.66 ± 0.2 nM in assay [1] (setting [10]); 0.58 ± 0.3 nM in assay [2] (setting [11]); 0.58 to 0.87 nM in assay [5]; 160 ± 40 nM in assay [3] (MTT, 72 h). The “Ratio IC50 cpd/IC50 DHA” value in assay [1] is recorded as 0.19; in assay [2], 0.39. The “SI IC50WEHI-164/IC50 cpd” value in assay [1] is on record as 242; in assay [2] it was 275. Also, the “selectivity index (SI)” value in assay [5] is above 195.

With `CC[C@@]1(O)C(=O)OCc2c1cc1n(c2=O)Cc2cc3ccccc3nc2-1` [Camptothecin, camptothecin, reference compound], the IC50 in assay [4] was 2620 ± 840 nM; in assay [6], 30 ± 10 nM. In addition, the “SI with respect to the human dermal fibroblasts (HDF)” value in assay [6] (HDF versus K562) is listed as below 100.

On to `CC1CCC2C(C)C(N3CCN(C4CC(O)C(O)C(CO)O4)CC3)OC3OC4(C)CCC1C32OO4` (centres unmarked) [Compound 22], for which the results for the “Ratio IC50 cpd/IC50 DHA” value in assay [1] and in assay [2] were 0.68 and 0.73, respectively. Also, the half-maximal inhibitory concentration (IC50) turned out to be 2.3 ± 1 nM in assay [1] (setting [7]), 1.1 ± 0.4 nM in assay [2] (setting [8]) and 510 ± 100 nM in assay [3] (setting [9]). The “SI IC50WEHI-164/IC50 cpd” value in assay [1] was determined as 222; in assay [2] it was 463.
